Assays:
Solubility of Compound 1 = type: physicochemical; details: compared to the low dose / proposed dose levels
CII = experiment: Flow cytometry viability/apoptosis assay, CII; type: cell-based; details: CLL, 120 hours, read-out: % Viable Cells IC50
Method: (§1) Cell Proliferation and Viability Assay Using Hematological Cell Lines: The following exemplary anti-proliferative assay uses exemplary hematological cell lines in the following. The in vitro growth inhibitory activity of Compound 1 described herein was evaluated using a 384-well flow cytometry assay.
(§2) The cell lines were plated in 384-well flat bottom plates and assessed with increasing concentrations of compound ranging from 0.00015 to 10 μM or dimethyl sulfoxide (DMSO) control. The final concentration of DMSO was 0.1% (v/v). Following the addition of Compound 1 or DMSO and incubation for 120 hours, cell number and cell death were analyzed by flow cytometry (Attune®, Thermo Fisher) using Annexin V and the live-cell impermeant DNA dye, DRAQ7. […]
(§3) Flow cytometry data analysis was then performed using the Flow Jo_v10 software to determine the number of viable cells (Annexin V and DRAQ7 double negative staining cells) and percentage of apoptotic cells (Annexin V positive cells) for each condition. […] The IC50 (50% inhibitory concentration) and Emax (maximum efficacy achieved) values were then calculated by performing nonlinear regression curve fitting using log(inhibitor) vs. normalized response—variable slope analysis on GraphPad Prism 7.03. Area under the curve (AUC) was calculated by performing area under curve analysis on GraphPad Prism 7.03. […]

Mec1 = experiment: Flow cytometry viability/apoptosis assay, Mec1; type: cell-based; details: Homo sapiens; Mec1, CLL; 120 hours; read-out: % Viable Cells IC50
Method: as §1, §2, §3

PGA1 = experiment: Flow cytometry viability/apoptosis assay, PGA1; type: cell-based; details: PGA1, CLL; 120 hours; read-out: % Viable Cells IC50
Method: as §1, §2, §3

hematological cell lines = experiment: Cell Proliferation and Viability Assay Using Hematological Cell Lines (whole panel); type: cell-based; details: panel of hematological cell lines, 0.00015 to 10 μM, 5 days
Method: as §1, §2, §3

ROS-50 = experiment: Flow cytometry viability/apoptosis assay, ROS-50; type: cell-based; details: ROS-50, DLBCL; 120 hours; read-out: % Viable Cells IC50
Method: as §1, §2, §3

HG3 = experiment: Flow cytometry viability/apoptosis assay, HG3; type: cell-based; details: HG-3; HG3, CLL; 120 hours; read-out: % Viable Cells IC50
Method: as §1, §2, §3

WA-OSEL = experiment: Flow cytometry viability/apoptosis assay, WA-OSEL; type: cell-based; details: CLL, 120 hours, read-out: % Viable Cells IC50
Method: as §1, §2, §3

DB = experiment: Flow cytometry viability/apoptosis assay, DB; type: cell-based; details: Homo sapiens, DLBCL GCB, 120 hours, read-out: % Viable Cells IC50
Method: as §1, §2, §3

OCI-LY3 = experiment: Flow cytometry viability/apoptosis assay, OCI-LY3; type: cell-based; details: Homo sapiens; OCI-LY3, DLBCL ABC; 120 hours; read-out: % Viable Cells IC50
Method: as §1, §2, §3

solubility (Solubility of Compound 1) | IC50 (OCI-LY3) | SMILES | IC50 (CII) | IC50 (Mec1) | IC50 (PGA1) | antiproliferative activity and/or apoptotic effects (hematological cell lines) | IC50 (ROS-50) | IC50 (HG3) | IC50 (WA-OSEL) | IC50 (DB)
relatively high | – | Cl.O=C1CC[C@H](N2C(=O)c3cccc(NCc4ccc(CN5CC(N6CCOCC6)C5)cc4F)c3C2=O)C(=O)N1 [Compound 1 HC, salt] | – | – | – | – | – | – | – | –
relatively high | ≥ 10 µM | O=C1CC[C@H](N2C(=O)c3cccc(NCc4ccc(CN5CC(N6CCOCC6)C5)cc4F)c3C2=O)C(=O)N1 [Compound 1, (S)-2-(2,6-dioxopiperidin-3-yl)-4-((2-fluoro-4-((3-morpholinoazetidin-1-yl)methyl)benzyl)amino)isoindoline-1,3-dione] | ≥ 10 µM | ≥ 10 µM | ≥ 10 µM | antiproliferative activity and/or apoptotic effects in almost all hematological cell lines tested | ≥ 10 µM | ≥ 10 µM | ≥ 10 µM | ≥ 10 µM

Source: patent US12220417B2, “Pharmaceutical compositions comprising (S)-2-(2,6-dioxopiperidin-3-yl)-4-((2-fluoro-4-((3-morpholinoazetidin-1-yl)methyl)benzyl)amino)isoindoline-1,3-dione and methods of using the same” (Celgene Corporation, priority 2019, dated 2025)
